Target: T1, Tyrosinase (Agaricus bisporus, UniProt O42713)
T1 sequence (O42713 whole entry): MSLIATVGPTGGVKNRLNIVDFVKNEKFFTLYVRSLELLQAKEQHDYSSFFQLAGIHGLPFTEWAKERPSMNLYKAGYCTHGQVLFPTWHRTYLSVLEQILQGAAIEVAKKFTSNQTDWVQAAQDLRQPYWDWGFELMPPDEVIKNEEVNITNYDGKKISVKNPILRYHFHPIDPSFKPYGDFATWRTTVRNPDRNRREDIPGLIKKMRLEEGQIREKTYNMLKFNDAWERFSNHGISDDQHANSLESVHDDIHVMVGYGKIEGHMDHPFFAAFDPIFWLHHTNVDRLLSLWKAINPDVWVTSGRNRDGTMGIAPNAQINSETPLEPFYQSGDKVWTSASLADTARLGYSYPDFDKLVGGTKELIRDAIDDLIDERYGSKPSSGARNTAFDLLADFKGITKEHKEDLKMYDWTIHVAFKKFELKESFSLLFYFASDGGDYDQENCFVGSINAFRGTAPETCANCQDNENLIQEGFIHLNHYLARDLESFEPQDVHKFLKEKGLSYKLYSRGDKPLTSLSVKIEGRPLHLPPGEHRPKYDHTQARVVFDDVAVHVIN
Assay: Inhibition of mushroom tyrosinase using TBC as substrate by spectrophotometric method

Which IC50 does the source give for `OC[C@H]1O[C@@H](OCCCCCCCCCCCCCCc2ccc(O)cc2O)[C@H](O)[C@@H](O)[C@@H]1O` here?
Its IC50 is 390 nM.

Which IC50 does the source give for `OC[C@H]1O[C@@H](OCCc2ccc(O)cc2O)[C@H](O)[C@@H](O)[C@@H]1O` here?
Its IC50 is 35900 nM.

`OC[C@H]1O[C@@H](OCCCCCCc2ccc(O)cc2O)[C@H](O)[C@@H](O)[C@@H]1O` was tested. Which IC50 did it give?
The IC50 was 630 nM.

With `OC[C@H]1O[C@@H](OCCCCCCCCCCc2ccc(O)cc2O)[C@H](O)[C@@H](O)[C@@H]1O` as the compound, how does the IC50 read?
The IC50 was 410 nM.

Which IC50 does the source give for `OC[C@H]1O[C@@H](OCCCCc2ccc(O)cc2O)[C@H](O)[C@@H](O)[C@@H]1O` here?
Its IC50 is 1360 nM.

With `OC[C@H]1O[C@@H](OCCCc2ccc(O)cc2O)[C@H](O)[C@@H](O)[C@@H]1O` as the compound, how does the IC50 read?
Its IC50 is 3620 nM.

With `CCCCCCc1ccc(O)cc1O` [HEXYLRESORCINOL] as the compound, how does the IC50 read?
The IC50 was 610 nM.

Target: T2, Tyrosinase (Homo sapiens, UniProt P14679)
T2 sequence (P14679 whole entry): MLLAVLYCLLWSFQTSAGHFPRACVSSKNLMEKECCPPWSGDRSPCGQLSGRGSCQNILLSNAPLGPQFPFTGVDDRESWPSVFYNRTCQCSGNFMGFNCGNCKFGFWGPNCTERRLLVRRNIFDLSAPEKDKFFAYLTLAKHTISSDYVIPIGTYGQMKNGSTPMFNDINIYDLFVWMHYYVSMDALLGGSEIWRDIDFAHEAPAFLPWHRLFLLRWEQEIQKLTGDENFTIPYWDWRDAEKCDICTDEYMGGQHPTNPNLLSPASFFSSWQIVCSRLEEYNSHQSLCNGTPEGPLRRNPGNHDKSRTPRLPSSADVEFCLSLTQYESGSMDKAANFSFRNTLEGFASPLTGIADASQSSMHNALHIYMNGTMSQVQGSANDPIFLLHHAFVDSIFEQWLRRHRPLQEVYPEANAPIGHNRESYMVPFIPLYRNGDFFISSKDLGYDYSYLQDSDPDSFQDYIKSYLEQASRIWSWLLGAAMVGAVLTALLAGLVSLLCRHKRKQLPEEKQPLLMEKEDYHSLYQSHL
Assay: Inhibition of tyrosinase (unknown origin) using L-DOPA as substrate preincubated with substrate for 5 mins followed by enzyme addition and measured immediately by spectrophotometric method

Which IC50 does the source give for `OC[C@H]1O[C@@H](Oc2ccc(O)cc2O)[C@H](O)[C@@H](O)[C@@H]1O` here?
Its IC50 is 417000 nM.

Reference: ChEMBL document CHEMBL4308889, “Resorcinol alkyl glucosides as potent tyrosinase inhibitors” (Bioorg Med Chem Lett, 2019)
